{"source": "patent US8779004B2", "about": "“Stable emulsion formulations” (Amgen, Inc., priority 2006, dated 2014)", "key": {"rabbit ear vein": {"test_system": "rabbit ear vein", "test": "Acute local venous toxicity / irritation in the rabbit ear vein (REV)", "assay_type": "in vivo", "parameters": "Erythema / Edema: scale not given here", "description": "This Example illustrates the protective effect of the formulations of the invention as measured by irritation in the rabbit ear vein (REV). A typical protocol for evaluation of the local tolerance for formulations was as follows.\nDosing of animals. The rabbits used were male New Zealand rabbits weighing approximately 2.5 to 4 kg. The rabbits were acclimatized for a period of 10 days following receipt before the start of the study. The rabbits were randomized into groups based on the number of formulations to be studied. Typically 3 rabbits were used per group.\nFor each group of rabbits, the formulation containing the drug to be tested was dosed in the right marginal ear vein, with the corresponding placebo being dosed at the same time in the left marginal ear vein. The placebos were prepared such that they matched the formulation composition, and the technique of dosing for the drug formulations and the placebo formulations were kept the same. Typical dosing volumes ranged from 1 mL/kg to 5 mL/kg. The formulations were either dosed as (a) bolus injection wherein the entire dosing volume was administered within 5 minutes; (b) 30 minute infusion; or (c) a 2 hour infusion. The formulations were administered through appropriately sized syringes and catheters. The injection sites were marked with indelible ink for identification at each observation period. The rabbits were dosed based upon the Day 1 body weight.\nObservation of animals. Each animal was observed cage side at least twice daily for mortality/morbundity. Each animal received a detailed clinical observation once prior to randomization, once prior to dosage administration and once daily thereafter.\nAny abnormalities were recorded as they were observed. Observations for local irritation were scored according to the following scale\nAt each interval the area of irritation (if present) was also measured. The actual length and width in mm was recorded.\nOn day 3 the animals were euthanized and the tissues from the Pinna of the left and right ear, and any gross lesions (if present) of the ear or ear vein were collected. Histopathology was performed on the collected tissues. After fixation, the pinna was tripped into a total of 4 sections of 1 cm each; one of which included the deposition site (location of the end of the catheter in the ear) and one from approximately 1-, 2-, and 3-cm downstream from the deposition site. Each section included skin, cartilage, vein and other soft tissue. These tissues were then embedded in paraffin, sectioned and stained with hematoxylin and eosin, and examined via light microscopy."}, "[1]": {"test": "Zeta-potential vs pH of cinacalcet emulsions containing sodium oleate", "assay_type": "physicochemical", "settings": "cinacalcet emulsion; for pH at which charge is zero: from linear regression line; for zeta-potential: in mV (unit assumed)", "protocol": "Preparation of Each Emulsion: the Emulsion were Prepared Using Substantially the same method as discussed above in Example 2 under “Laboratory scale preparation.” Briefly, the aqueous phase was prepared by adding appropriate amounts of glycerin and water to an appropriate container. The glycerin and water were mixed well and maintained at elevated temperatures (60-70° C.) by immersing the container in a water batch.\nThe oil phase was prepared by adding appropriate oil and lecithin. The container was tared and the cinacalcet free base was added. Appropriate quantity of sodium oleate (between 0-1%) was added to this oil phase mixture. The oil/lecithin/cinacalcet mixture was mixed at an elevated temperature using sonicater probes to disperse/dissolve the lecithin, the Cinacalcet free base and the sodium oleate.\nThe hot oil phase was transferred to the aqueous phase at elevated temperatures and homogenized to obtain coarse emulsion. Fine emulsion was obtained using a microfluidizer.\nCharge Measurement: Zeta-potential as a function of pH was determined using a Malvern Zetasizer Nano Series Model ZEN 3600 laser-scattering particle electrophoretic analyzer that measures the electrophoretic mobility and zeta potential distribution. Samples were prepared for the zeta potential titration by diluting each emulsion approximately 2500-fold in water. The pH of this mixture was noted after dilution, and then adjusted to a pH 9 using sodium hydroxide. The pH was then titrated down to pH 6 in 0.3 or 0.5 unit steps. Zeta potential measurements were taken at every step. The zeta-potential of each emulsion was plotted as a function of pH and fit to a linear regression line."}, "[2]": {"settings": "emulsion with DEA buffer 0.05%, pH 9, Bolus dose, 2 mg/kg (conc. 10 mg/mL), 0 h"}, "[3]": {"settings": "emulsion with DEA buffer 0.05%, pH 9, Bolus dose, 2 mg/kg (conc. 10 mg/mL), 48 h"}, "[4]": {"settings": "emulsion with TRIS buffer 5 mM, pH 9, Bolus dose, 2 mg/kg (conc. 10 mg/mL), 0 h"}, "[5]": {"settings": "emulsion with TRIS buffer 5 mM, pH 9, Bolus dose, 2 mg/kg (conc. 10 mg/mL), 48 h"}, "[6]": {"settings": "emulsion with TRIS buffer 20 mM, pH 9, 2-hour infusion, 2 mg/kg (conc. 0.5 mg/mL), 0 h"}, "[7]": {"settings": "emulsion with TRIS buffer 20 mM, pH 9, 2-hour infusion, 2 mg/kg (conc. 0.5 mg/mL), 48 h"}, "[8]": {"settings": "solution in acetate mannitol buffer, pH 4, 2 hour infusion, 2 mg/kg (conc. 0.5 mg/mL), 0 h"}, "[9]": {"settings": "solution in acetate mannitol buffer, pH 4, 2 hour infusion, 2 mg/kg (conc. 0.5 mg/mL), 48 h"}, "[10]": {"settings": "solution in acetate mannitol buffer, pH 4, Bolus dose, 2 mg/kg (conc. 0.5 mg/mL), 0 h"}, "[11]": {"settings": "solution in acetate mannitol buffer, pH 4, Bolus dose, 2 mg/kg (conc. 0.5 mg/mL), 48 h"}, "[12]": {"settings": "solution in acetate mannitol buffer, pH 4, Bolus dose, 2 mg/kg (conc. 1 mg/mL), 0 h"}, "[13]": {"settings": "solution in acetate mannitol buffer, pH 4, Bolus dose, 2 mg/kg (conc. 1 mg/mL), 48 h"}}}
{"smiles": "C[C@@H](NCCCc1cccc(C(F)(F)F)c1)c1cccc2ccccc12", "note": "[Cinacalcet, N-(1-(R)-(1-naphthyl)ethyl]-3-[3-(trifluoromethyl)phenyl]-1-aminopropane]", "values": [{"measurement": "local venous toxicity", "setting": "rabbit ear vein; administered IV as a solution, acetate mannitol buffer at pH 4", "result": "mild to moderate"}, {"measurement": "local venous toxicity effects", "setting": "rabbit ear vein; cinacalcet-containing emulsions, compared with solution", "result": "greatly reduced or completely eliminated"}, {"measurement": "tolerability", "setting": "rabbit ear vein; emulsion buffered with either TRIS or DEA, dosed as bolus", "result": "well tolerated"}, {"measurement": "tolerability", "setting": "rabbit ear vein; emulsion containing TRIS dosed as an infusion", "result": "well tolerated"}, {"measurement": "Edema", "setting": "rabbit ear vein; [2]", "result": "0.0 ± 0.0"}, {"measurement": "Erythema", "setting": "rabbit ear vein; [2]", "result": "0.3 ± 0.6"}, {"measurement": "Edema", "setting": "rabbit ear vein; [3]", "result": "0.0 ± 0.0"}, {"measurement": "Erythema", "setting": "rabbit ear vein; [3]", "result": "0.0 ± 0.0"}, {"measurement": "Histopathology", "setting": "rabbit ear vein; emulsion with DEA buffer 0.05%, pH 9, Bolus dose, observed for both placebo and cinacalcet emulsions", "result": "Mild to moderate perivascular acute"}, {"measurement": "Edema", "setting": "rabbit ear vein; [4]", "result": "0.0 ± 0.0"}, {"measurement": "Erythema", "setting": "rabbit ear vein; [4]", "result": "0.0 ± 0.0"}, {"measurement": "Edema", "setting": "rabbit ear vein; [5]", "result": "0.0 ± 0.0"}, {"measurement": "Erythema", "setting": "rabbit ear vein; [5]", "result": "0.0 ± 0.0"}, {"measurement": "Histopathology", "setting": "rabbit ear vein; emulsion with TRIS buffer 5 mM, pH 9, Bolus dose, observed for both placebo and cinacalcet emulsions", "result": "Minimal to mild perivascular acute"}, {"measurement": "Histopathology", "setting": "rabbit ear vein; emulsion with TRIS buffer 20 mM, pH 9, 2-hour infusion, 2 mg/kg (conc. 0.5 mg/mL)", "result": "lipid emulsion was well tolerated as a 2 hour"}, {"measurement": "Edema", "setting": "rabbit ear vein; [6]", "result": "0.0 ± 0.0"}, {"measurement": "Erythema", "setting": "rabbit ear vein; [6]", "result": "0.0 ± 0.0"}, {"measurement": "Edema", "setting": "rabbit ear vein; [7]", "result": "0.0 ± 0.0"}, {"measurement": "Erythema", "setting": "rabbit ear vein; [7]", "result": "0.0 ± 0.0"}, {"measurement": "Histopathology", "setting": "rabbit ear vein; solution in acetate mannitol buffer, pH 4, 2 hour infusion, 2 mg/kg (conc. 0.5 mg/mL)", "result": "mild to severe acute, necrotizing inflammation"}, {"measurement": "Edema", "setting": "rabbit ear vein; [8]", "result": "0.0 ± 0.0"}, {"measurement": "Erythema", "setting": "rabbit ear vein; [8]", "result": "0.0 ± 0.0"}, {"measurement": "Edema", "setting": "rabbit ear vein; [9]", "result": "3.3 ± 1.2"}, {"measurement": "Erythema", "setting": "rabbit ear vein; [9]", "result": "4.0 ± 0.0"}, {"measurement": "Histopathology", "setting": "rabbit ear vein; solution in acetate mannitol buffer, pH 4, Bolus dose, 2 mg/kg", "result": "Mnimal to mild infiltrates of mixed"}, {"measurement": "Edema", "setting": "rabbit ear vein; [10]", "result": "0.0 ± 0.0"}, {"measurement": "Erythema", "setting": "rabbit ear vein; [10]", "result": "0.0 ± 0.0"}, {"measurement": "Edema", "setting": "rabbit ear vein; [11]", "result": "1.7 ± 0.6"}, {"measurement": "Erythema", "setting": "rabbit ear vein; [11]", "result": "2.7 ± 0.6"}, {"measurement": "Edema", "setting": "rabbit ear vein; [12]", "result": "0.0 ± 0.0"}, {"measurement": "Erythema", "setting": "rabbit ear vein; [12]", "result": "0.0 ± 0.0"}, {"measurement": "Edema", "setting": "rabbit ear vein; [13]", "result": "2.0 ± 1.7"}, {"measurement": "Erythema", "setting": "rabbit ear vein; [13]", "result": "2.7 ± 0.6"}, {"measurement": "Histopathology", "setting": "rabbit ear vein; solution in acetate mannitol buffer, pH 4, Bolus dose, at the higher dose", "result": "Mild to severe effects seen at the higher"}, {"measurement": "tolerability when administered IV", "setting": "rabbit ear vein; solution, acetate mannitol buffer at pH 4", "result": "poorly tolerated"}, {"measurement": "pH at which charge is zero", "setting": "[1]; 0% Na Oleate", "result": 8.02}, {"measurement": "pH at which charge is zero", "setting": "[1]; 0.25% Na Oleate", "result": 7.87}, {"measurement": "pH at which charge is zero", "setting": "[1]; 0.5% Na Oleate", "result": 7.81}, {"measurement": "pH at which charge is zero", "setting": "[1]; 1% Na Oleate", "result": 7.54}, {"measurement": "zeta-potential", "setting": "[1]; pH 6.5, 0% Na Oleate", "result": 32.8}, {"measurement": "zeta-potential", "setting": "[1]; pH 6.5, 0.25% Na Oleate", "result": 36}, {"measurement": "zeta-potential", "setting": "[1]; pH 6.5, 0.5% Na Oleate", "result": 37.4}, {"measurement": "zeta-potential", "setting": "[1]; pH 6.5, 1% Na Oleate", "result": 24.5}, {"measurement": "zeta-potential", "setting": "[1]; pH 7.0, 0% Na Oleate", "result": 17.8}, {"measurement": "zeta-potential", "setting": "[1]; pH 7.0, 0.25% Na Oleate", "result": 28.1}, {"measurement": "zeta-potential", "setting": "[1]; pH 7.0, 0.5% Na Oleate", "result": 27.8}, {"measurement": "zeta-potential", "setting": "[1]; pH 7.0, 1% Na Oleate", "result": 23.8}, {"measurement": "zeta-potential", "setting": "[1]; pH 7.5, 0% Na Oleate", "result": 15.3}, {"measurement": "zeta-potential", "setting": "[1]; pH 7.5, 0.25% Na Oleate", "result": 7.24}, {"measurement": "zeta-potential", "setting": "[1]; pH 7.5, 0.5% Na Oleate", "result": 16.2}, {"measurement": "zeta-potential", "setting": "[1]; pH 7.5, 1% Na Oleate", "result": 4.87}, {"measurement": "zeta-potential", "setting": "[1]; pH 8.0, 0% Na Oleate", "result": 15}, {"measurement": "zeta-potential", "setting": "[1]; pH 8.0, 0.25% Na Oleate", "result": 2.83}, {"measurement": "zeta-potential", "setting": "[1]; pH 8.0, 0.5% Na Oleate", "result": 0.242}, {"measurement": "zeta-potential", "setting": "[1]; pH 8.0, 1% Na Oleate", "result": "−10.7"}, {"measurement": "zeta-potential", "setting": "[1]; pH 8.5, 0% Na Oleate", "result": "−16.7"}, {"measurement": "zeta-potential", "setting": "[1]; pH 8.5, 0.25% Na Oleate", "result": "−10"}, {"measurement": "zeta-potential", "setting": "[1]; pH 8.5, 0.5% Na Oleate", "result": "−26.8"}, {"measurement": "zeta-potential", "setting": "[1]; pH 8.5, 1% Na Oleate", "result": "−30.4"}, {"measurement": "zeta-potential", "setting": "[1]; pH 9.0, 0% Na Oleate", "result": "−26.5"}, {"measurement": "zeta-potential", "setting": "[1]; pH 9.0, 0.25% Na Oleate", "result": "−42.5"}, {"measurement": "zeta-potential", "setting": "[1]; pH 9.0, 0.5% Na Oleate", "result": "−42.1"}, {"measurement": "zeta-potential", "setting": "[1]; pH 9.0, 1% Na Oleate", "result": "−52.9"}]}
